Test results: publication PMC4535766, “Antiprotozoal Activity Profiling of Approved Drugs: A Starting Point toward Drug Repositioning” (PLoS ONE, 2015)
Counter-ions that a name gives are not always drawn. Like-named read-outs stand apart in the source and are kept apart here.

Tests used:
[1] = test system: axenic amastigotes of L. donovani, strain MHOM-ET-67/L82; test: In vitro activity against L. donovani axenic amastigotes, serial drug dilution assay; type: cell-based, Leishmania donovani
Protocol: (§1) Drug stock solutions (10mg/ml) were in DMSO (100%). […] Selectivity index (SI) was calculated as IC50 L6 cells/IC50 parasite.

[2] = test system: P. falciparum strain K1; test: In vitro activity against P. falciparum, serial drug dilution assay; conditions: for Activity against P. falciparum (in words): in vitro; for selectivity ratio: rat
Protocol: as §1

[3] = in vitro; conditions: rat
Protocol: as §1

[4] = test system: T. cruzi, strain Tulahuen C4, intracellular amastigotes; test: microbe, parasite or virus in culture; conditions: for IC50: Trypanosoma cruzi, TULAHUEN; for selectivity ratio: rat, Selectivity index: IC50 Cytotoxicity L6/ IC50 T. cruzi
Protocol: as §1

[5] = Cytotoxicity on macrophages infected with L. donovani; type: cell-based, mouse; conditions: mouse
[6] = test system: L. donovani strain MHOM-ET-67/L82 amastigotes; test: in vitro; conditions: mouse, Selectivity index: IC50 Cytotoxicity macrophages/ IC50 L. donovani
Protocol: (§2) After 24 h 1.2 x 10^5 amastigote L. donovani in 100 μl were added. The amastigotes were taken from an axenic culture grown at pH 5.4. Four hours later, the medium containing free amastigote forms was removed and replaced by fresh medium. The next day the medium was replaced by medium with or without a serial drug dilution of seven 3-fold dilution steps covering a range from 30 to 0.04 μg/ml. Parasite growth in the presence of the drug was compared to control wells. After 96 h of incubation, the medium was removed and the slides fixed with methanol for 10 min followed by staining with a 10% Giemsa solution. Infected and non-infected macrophages were counted for the control cultures and those exposed to the serial drug dilutions. The infection rates were determined. The results were expressed as a percentage reduction in parasite burden compared to control wells, and the IC50 was calculated by linear regression analysis. The collection of mouse peritoneal macrophages was done at the Swiss Tropical and Public Health Institute (Basel) according to the rules and regulations for the protection of animal rights ("Tierschutzverordnung") of the Swiss "Bundesamt für Veterinärwesen".

[7] = test system: intracellular amastigotes of L. donovani strain MHOM-ET-67/L82; test: Activity against Leishmania donovani intracellular amastigotes in mouse peritoneal macrophages; conditions: Leishmania donovani, Peritoneal macrophage, in Mus musculus
Protocol: as §2

[8] = test system: T. b. rhodesiense strain STIB 900, trypomastigotes; test: In vitro activity against T. b. rhodesiense, serial drug dilution assay; conditions: for IC50: Trypanosoma brucei
Protocol: as §1

[9] = Leishmania donovani, axenic amastigotes, strain MHOM-ET-67/L82, means of two independent assays, read-out: IC50 L. don. axen.
[10] = Plasmodium falciparum, K1, read-out: P. falc. IC50
[11] = macrophages infected with L. donovani, read-out: IC50 Cytotox. mac.inf.
[12] = infected macrophages, read-out: Cytotox. mac.inf. IC50
[13] = 96 h, read-out: IC50 L. don. intracell
[14] = axenic amastigotes, strain MHOM-ET-67/L82, means of two independent assays, read-out: IC50 L. don. axen.
[15] = Plasmodium falciparum, K1, read-out: IC50 P. falc. K1
[16] = Leishmania donovani, L. donovani axenic amastigotes, read-out: L. don. axen. IC50
[17] = read-out: L. don. intracell IC50
[18] = Selectivity index: IC50 Cytotoxicity L6/ IC50 P. falciparum
[19] = L6 cells, IC50 Cytotox. L6, L6 cells, means of two independent assays
[20] = mouse peritoneal macrophages infected with L. donovani, macrophages infected with L. donovani, read-out: IC50 Cytotox. mac.inf.
[21] = rat, L6 cells versus T. b. rhodesiense STIB 900 trypomastigotes

| SMILES | IC50 [1, 9] [µM] | IC50 at 96 h [5, 11] [µM] | IC50 [7, 13] [µM] | IC50 ([3]; IC50 Cytotox. L6) [µM] | IC50 ([4]; read-out: IC50 T. cruzi) [µM] | IC50 ([8]; read-out: IC50 T. b. rhod.) [µM] | IC50 [2, 15] [µM] | further results |
| --- | --- | --- | --- | --- | --- | --- | --- | --- |
| Cc1cccc(N(C)C(=S)Oc2ccc3ccccc3c2)c1 [Tolnaftate] | 4.33 | > 97.6 | 50.1 | – | – | – | – | IC50 [2, 10]: 19 µM; IC50 ([3]; Cytotox. L6 IC50): 84.6 µM; IC50 ([4]; read-out: T. cruzi IC50): 20 µM; IC50 at 96 h [5, 12]: > 97.6 µM; selectivity ratio at 96 h [6]: > 23; IC50 ([8]; read-out: T. b. rhod. IC50): 69.3 µM |
| O=C1CN(/N=C/c2ccc([N+](=O)[O-])o2)C(=O)N1 [Nitrofurantoine] | < 3 | 125 | > 41.8 | 90.3 | 4.35 | 0.5 | – | IC50 [1, 14]: 2.12 µM; selectivity ratio [4]: 21; selectivity ratio at 96 h [6]: 59; Selectivity index: IC50 Cytotoxicity L6/ IC50 T. b. rhodesiense ([8]; rat): 181; selectivity ratio ([8]; rat, Selectivity index: IC50 Cytotoxicity L6/ IC50 T. b. rhodesiense): 180 |
| O=C(N/N=C/c1ccc([N+](=O)[O-])o1)c1ccc(O)cc1 [Nifuroxazide] | < 3 | 36.2 | > 10.9 | 12.3 | 0.23 | 0.03 | 7.82 | IC50 [1, 14]: 2.83 µM; selectivity ratio [4]: 54; selectivity ratio at 96 h [6]: 13; selectivity ratio ([8]; rat): 410 |
| CO[C@H]1/C=C/O[C@@]2(C)Oc3c(C)c(O)c4c(O)c(c(/C=N/N5CCN(C)CC5)c(O)c4c3C2=O)NC(=O)/C(C)=C\C=C\[C@H](C)[C@H](O)[C@@H](C)[C@@H](O)[C@@H](C)[C@H](OC(C)=O)[C@@H]1C [Rifampicin] | < 3 | > 36.5 | > 36.5 | 75.2 | – | – | 0.1 | IC50 [1, 14]: 1.53 µM; IC50 ([4]; read-out: T. cruzi IC50): > 109 µM; IC50 at 96 h [5, 12]: > 36.5 µM; selectivity ratio at 96 h [6]: > 24; IC50 ([8]; read-out: T. b. rhod. IC50): 16.7 µM; Activity against T. b. rhodesiense (in words) ([8]; in vitro): devoid of antitrypanosomal activity |
| OCCN(CCO)c1nc(N2CCCCC2)c2nc(N(CCO)CCO)nc(N3CCCCC3)c2n1 [Dipyridamole] | 62 | > 59.5 | > 59.5 | 38.6 | 29.3 | 7.45 | 1.3 | Activity against P. falciparum (in words) [2]: selective activities |
| CCC[C@@H]1C[C@@H](C(=O)N[C@@H]([C@H]2O[C@H](SC)[C@H](O)[C@@H](O)[C@H]2O)[C@@H](C)O)N(C)C1 [Lincomycin] | > 221 | > 73.8 | > 73.8 | > 221 | > 221 | > 221 | 7.08 | – |
| CC(=O)[C@H]1CC[C@H]2[C@@H]3CC[C@H]4C[C@](C)(O)CC[C@]4(C)[C@H]3CC[C@]12C [Ganaxolone] | – | – | – | – | – | – | – | IC50 [1, 16]: 42.5 µM; IC50 [2, 10]: > 15 µM; IC50 [3]: 23.5 µM; IC50 ([4]; read-out: T. cruzi IC50): 65 µM; IC50 at 96 h [5, 12]: > 90.2 µM; IC50 [7, 17]: > 90.2 µM; IC50 ([8]; read-out: T. b. rhod. IC50): 5.47 µM |
| NNC(=O)c1ccncc1 [Isoniazide] | > 729 | > 219 | > 219 | 602 | 383 | > 729 | 246 | – |
| CC(N)C12CC3CC(CC(C3)C1)C2 (stereo not drawn) [Rimantadine] | 427 | – | > 167 | – | 321 | 13.8 | 0.97 | Activity against P. falciparum (in words) [2]: selective activities; selectivity ratio [2, 18]: 321; IC50 [3, 19]: 311 µM; IC50 at 96 h [5, 20]: > 167 µM; selectivity ratio [8, 21]: 23 |
| CN(C)c1ccc(O)c2c1C[C@H]1C[C@H]3[C@H](N(C)C)C(O)=C(C(N)=O)C(=O)[C@@]3(O)C(O)=C1C2=O [Minocycline] | – | – | – | – | – | – | – | IC50 [1, 16]: 45.7 µM; IC50 [2, 10]: 3.58 µM; IC50 ([3]; Cytotox. L6 IC50): 9.42 µM; IC50 ([4]; read-out: T. cruzi IC50): 22.3 µM; IC50 at 96 h [5, 12]: > 21.9 µM; IC50 [7, 17]: > 21.9 µM; IC50 ([8]; read-out: T. b. rhod. IC50): 36.6 µM |
| CC[C@H]1OC(=O)[C@H](C)[C@@H](O[C@H]2C[C@@](C)(OC)[C@@H](O)[C@H](C)O2)[C@H](C)[C@@H](O[C@@H]2O[C@H](C)C[C@H](N(C)C)[C@H]2O)[C@](C)(O)C[C@@H](C)C(=O)[C@H](C)[C@@H](O)[C@]1(C)O [Erythromycine (Hydrate), Erythromycine] | > 133 | > 39.9 | > 39.9 | 92.2 | 114 | 72.1 | 9.91 | – |
| CN1CCC(=C2c3ccccc3CC(=O)c3sccc32)CC1 [Ketotifen] | > 291 | – | > 97 | – | 141 | 15.2 | 0.75 | Activity against P. falciparum (in words) [2]: selective activities; selectivity ratio [2, 18]: 196; IC50 [3, 19]: 147 µM; IC50 at 96 h [5, 20]: > 97 µM |
| C[C@@H](c1ncncc1F)[C@](O)(Cn1cncn1)c1ccc(F)cc1F [Voriconazole] | > 286 | > 85.9 | > 85.9 | 195 | 11.2 | > 286 | > 143 | – |
| Cc1cn([C@H]2C[C@H](N=[N+]=[N-])[C@@H](CO)O2)c(=O)[nH]c1=O [Zidovudine] | > 374 | > 112 | > 112 | 207 | 156 | 140 | 175 | – |
| CN(C/C=C/C#CC(C)(C)C)Cc1cccc2ccccc12 [Terbinafine (Hydrochloride), Terbinafine] | 23 | – | 69.5 | – | 40.9 | 95.2 | 7.72 | IC50 [3, 19]: 47 µM; IC50 at 96 h [5, 20]: > 91.5 µM |
| CCN(CC)CCCC(C)Nc1ccnc2cc(Cl)ccc12 (stereo not drawn) [Chloroquine (Diphosphate), Chloroquine] | – | – | – | – | – | 3.81 | 0.17 | IC50 ([1]; Leishmania donovani, read-out: L. don. axen. IC50): > 196 µM; selectivity ratio [2]: 298; IC50 ([2]; read-out: IC50 P. falc. K1): 0.13 µM; IC50 [3]: 50.6 µM; IC50 ([4]; read-out: T. cruzi IC50): 99.2 µM; IC50 at 96 h [5, 12]: > 58.9 µM; IC50 [7, 17]: > 58.9 µM; selectivity ratio ([8]; rat): 13 |
| Nc1nc2c(ncn2CCC(CO)CO)c(=O)[nH]1 [Penciclovir] | > 395 | > 118 | > 118 | 220 | 254 | > 395 | 169 | – |
| CN1CCC(=C2c3ccccc3CCc3sccc32)CC1 [Pizotifen] | 215 | – | > 33.9 | – | 30.6 | 3.99 | 1.86 | IC50 [3, 19]: 45 µM; IC50 at 96 h [5, 20]: > 102 µM; selectivity ratio ([8]; rat): 11 |
| CCn1cc(C(=O)O)c(=O)c2cc(F)c(N3CCNCC3)nc21 [Enoxacin] | – | – | – | – | – | – | – | IC50 [1, 16]: > 312 µM; IC50 [2, 10]: 76.8 µM; IC50 ([3]; Cytotox. L6 IC50): 25 µM; IC50 ([4]; read-out: T. cruzi IC50): 163 µM; IC50 at 96 h [5, 12]: > 93.7 µM; IC50 [7, 17]: > 93.7 µM; IC50 ([8]; read-out: T. b. rhod. IC50): 113 µM |
| CC(Cc1cccc(C(F)(F)F)c1)NCCOC(=O)c1ccccc1 (stereo not drawn) [Benfluorex] | 243 | > 85.4 | 54.4 | 49.1 | 73.7 | 21.1 | 6.52 | – |
| COc1ccc2[nH]c([S+]([O-])Cc3ncc(C)c(OC)c3C)nc2c1 (stereo not drawn) [Omeprazole] | 90.9 | > 86.9 | > 86.9 | 126 | 68.3 | 51.8 | 13.2 | – |
| CN(C)CCCN1c2ccccc2Sc2ccccc21 [Promazine] | > 316 | > 35.2 | > 35.2 | – | 49.1 | 2.16 | 0.49 | selectivity ratio ([2]; L6 cells versus P. falciparum K1, Selectivity index: IC50 Cytotoxicity L6/ IC50 P. falciparum): 61; IC50 [3, 19]: 30.1 µM; selectivity ratio [8, 21]: 14 |
